Patent US10391151B2, “Dilute surfactant or isolated surfactant protein solution for the reduction of surface tension in the lung” (The Trustees of the Stevens Institute of Technology, priority 2015, dated 2019)
Where no end group is shown, it is not given here. The star is where a group is joined. Biotin = O=C1N[C@H]2[C@H](CS[C@H]2CCCCC(=O)*)N1

How the values were obtained:
[1] = system: heterogeneously flooded region of the isolated, perfused adult rat lung; experiment: Ventilation injury score in the isolated, perfused adult rat lung (Method 2); settings: for Injury score: flooding solution normal saline with 5% albumin, solutes at about the concentrations present in 1% SURVANTA solution, n=1 or 2/group (FIG. 2A)
Source text: Method 2. Ventilation ‘injury score’ in the adult rat lung. In the isolated, perfused adult rat lung, a surface alveolus is micropunctured and a non-fluorescent test solution is instilled. In experimental regions, a sufficiently large volume of liquid is instilled to generate a pattern of heterogeneous alveolar flooding; in control regions, a sufficiently small volume of liquid is instilled that the liquid spontaneously clears from the region, leaving behind a micropunctured-but-aerated region. Fluorescent dye, at a low concentration verified not to alter surface tension, is included in the perfusate. The region is imaged by confocal microscopy over a five minute baseline period at a constant transpulmonary pressure of 5 cm H2O. Five ventilation cycles are supplied to the lung, at 0.33 Hz with a positive end-expiratory pressure of 15 cm H2O and a tidal volume of 6 ml/kg body weight. The lung is then returned to a constant transpulmonary pressure of 5 cm H2O and imaged for 10 additional minutes. Alveolar liquid fluorescence at all time points is normalized by capillary fluorescence.
At baseline, alveolar liquid fluorescence (in flooded alveoli of experimental regions or in the liquid lining layer of control, aerated regions) is low and constant in all regions. Following ventilation, alveolar liquid fluorescence remains unchanged in aerated regions but continually increases with time in heterogeneously flooded regions. […] The increase above baseline in normalized alveolar liquid fluorescence at the last time point of the experiment is used as an injury score. The injury score, which indicates the rate of increase of normalized fluorescence following ventilation, correlates with surface tension of the test solution.
2. degree of ventilation induced injury in a region of the isolated, perfused adult rat lung in which surface alveoli have been flooded, in a heterogeneous fashion, with a test solution;

[2] = system: surface alveoli of the isolated adult rat lung; experiment: Surface tension determination in alveoli of the isolated adult rat lung (Method 1)
Method: Method 1. Surface tension determination in the adult rat lung. […] In flooded alveoli, the air-liquid interface forms a meniscus, at which surface tension is determined as follows. Alveolar air pressure is determined with a transducer at the trachea of the constantly-inflated lung. Alveolar liquid phase pressure is determined by servo-nulling pressure measurement. Meniscus radius of curvature is determined by confocal microscopy. Surface tension is calculated according to the Lapalce relation.
1. direct surface tension determination in surface alveoli of the isolated adult rat lung, which contains native lung surfactant, following alveolar instillation of a test solution;

[3] = 10 μM NaOH alone, without dextran, in the absence or presence of SURVANTA

Molecule: CCCCCCCCCCCCCCCC(=O)OC[C@H](COP(=O)([O-])OCC[N+](C)(C)C)OC(=O)CCCCCCCCCCCCCCC [DPPC, dipalmitoylphosphatidylcholine, reference compound]
- Injury score [1]: Only SP-C and sSP-C lower injury score

Molecule: sSP-Css-ion lock-B: a variant of sSP-Css-ion lock with a biotinylated N-terminal (Biotin-GIPSSPVHLKRLLIVVVVVELIVKVIVGALLMGL)
- Injury score [1]: lower injury score

Molecule: [Na+].[OH-] [NaOH]
- Effect on lung injury [1, 3]: no effect
- Effect on surface tension [2, 3]: no effect

Molecule: fibrinogen
- Facilitation of the surface activity of 1 vol % SURVANTA ([2]; 5 w/v % solute, adult rat lung, dextran negative charge imparted by 10 μM NaOH (FIGS. 1A and B)): facilitate

B1: SP-B: surfactant protein B isolated from pulmonary alveolar proteinosis patients (protein, UniProt P07988 201-279, looked up)
Pulmonary …: FPIPLPYCWLCRALIKRIQAMIPKGALAVAVAQVCRVVPLVAGGICQCLAERYSVILLDTLLGRMLPQLVCRLVLRCSM
modifications: Pulmonary surfactant-associated protein B
notes: surfactant protein B isolated from pulmonary alveolar proteinosis patients
- Injury score [1]: Only SP-C and sSP-C lower injury score
